Drawing on patent US20250051355A1, “COMPOUNDS, COMPOSITIONS, AND METHODS” (ACONCAGUA BIO, INC., priority 2023, published 2025), this text covers EC50 for 14 molecules.

Test [1] has as its target human calcitonin receptor (CTR) and RAMP3 (AMY3) (Homo sapiens, UniProt O60896+P30988). The experiment in a line: Amylin Receptor cAMP Assay II. The note with it: COS-7/AMY3 cells, cAMP dynamic 2 kit, read-out: Amylin Receptor cAMP Stimulation Activity: EC50. The format is cell-based. The source says:
Amylin Receptor cAMPAssay II
AMYRs are heterodimers of the class B calcitonin (CT) G-protein-coupled receptor (CTR) and receptor activity-modifying proteins (RAMPs). All three RAMPs can interact with the CTR and form AMY1, AMY2, AMY3 with RAMP1, RAMP2 and RAMP3, respectively. Like other class B1 GPCRs, the CT receptor family is canonically coupled to Gs-mediated cAMP production, and measurement of cAMP accumulation has been the primary assay used to determine peptide selectivity and potency.
(§1) To optimize functional activity directed toward Gas coupling, COS-7 cells were stably transfected with human calcitonin receptor (CTR) and RAMP3, simultaneously. 100×concentration of compound working solutions were prepared with 4-fold serial dilution in 384-well Echo LDV plate (Labcyte, Cat #LP-0200-BC). 200 nL/well 100×concentration of compound working solutions were moved to 384-well white microplate (Perkin Elmer, Cat #6007680) using Labcyte ECHO550. […] cells/mL COS-7/AMY3 cell suspensions prepared with assay buffer [HBSS containing 20 mM HEPES (Gibco, Cat #15630-080), 0.5 mM IBMX (Sigma, Cat #15879) and 0.1% Casein (Sigma, Cat #C4765)], 20 μL cell suspensions were added to each well of previous generated assay plate which already contains 200 nL compound at 100×concentration using ThermoFisher Multidrop Combi (2000 cells/well). Seal the plate and incubate at 37° C. with 5% CO2 for 30 min.
After incubation, the cAMP assay signal was generated using cAMP dynamic 2 kit (Revvity, Cat #62AM4PEC). 10 μL cAMP-d2 working solution was added to each well, followed by 10 μL Anti-cAMP antibody-cryptate working solution which was added to each well using CERTUS FLEX LIQUID DISPENSER The samples were then incubated at room temperature for 1 hour protected from light. the fluorescence was read at 665 and 615 nm with Reader PerkinElmer EnVision 2105.

For test [2], the target named is T1, human calcitonin receptor (CTR) (Homo sapiens, UniProt P30988).
T1 construct: expressed in transfected cells; host or cells: COS-7 (COS7-human CTR Clone #2)
T1 sequence (P30988 25-474): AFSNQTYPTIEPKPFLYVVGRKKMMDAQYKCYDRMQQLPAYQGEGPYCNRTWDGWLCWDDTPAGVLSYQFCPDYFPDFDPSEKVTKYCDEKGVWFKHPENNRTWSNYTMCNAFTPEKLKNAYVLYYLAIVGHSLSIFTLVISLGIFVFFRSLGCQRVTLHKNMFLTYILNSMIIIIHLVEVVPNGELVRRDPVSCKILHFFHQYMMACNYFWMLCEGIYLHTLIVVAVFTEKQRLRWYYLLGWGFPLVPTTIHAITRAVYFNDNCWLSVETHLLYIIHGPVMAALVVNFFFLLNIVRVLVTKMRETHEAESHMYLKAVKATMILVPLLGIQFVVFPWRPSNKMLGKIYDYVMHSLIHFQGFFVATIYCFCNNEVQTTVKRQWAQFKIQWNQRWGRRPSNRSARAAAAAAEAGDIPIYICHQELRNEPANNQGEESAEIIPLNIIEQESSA
The experiment in a line: Calcitonin receptor (CTR) cAMP Assay. The note with it: COS7-human CTR Clone #2 cells, cAMP dynamic 2 kit; read-out: Calcitonin Receptor cAMP Stimulation Activity: EC50. It is filed as cell-based.
Source text: Calcitonin receptor (CTR) cAMPAssay
The calcitonin receptor (CTR) belongs to the subfamily of GPCRs known as the secretin or ‘B’ family of GPCRs. Like other class B1 GPCRs, the CT receptor family is canonically coupled to Gs-mediated cAMP production, and measurement of cAMP accumulation has been the primary assay used to determine peptide selectivity and potency.
as §1, with “to create COS7-human CTR Clone #2 stable cell line. 100× concentration” for “and RAMP3, simultaneously. 100×concentration”, “COS7-human CTR Clone #2” for “COS-7/AMY3”
After incubation, the cAMP assay signal was generated using cAMP dynamic 2 kit (Revvity, Cat #62AM4PEC). […] cAMP-d2 working solution was added to each well, followed by 10 μL Anti-cAMP antibody-cryptate working solution which was added to each well using CERTUS FLEX LIQUID DISPENSER The samples were then incubated at room temperature for 1 hour protected from light. the fluorescence was read at 665 and 615 nm with Reader PerkinElmer EnVision 2105.

Sequence of human calcitonin receptor (CTR) and RAMP3 (AMY3) (O60896 24-148, one chain of several): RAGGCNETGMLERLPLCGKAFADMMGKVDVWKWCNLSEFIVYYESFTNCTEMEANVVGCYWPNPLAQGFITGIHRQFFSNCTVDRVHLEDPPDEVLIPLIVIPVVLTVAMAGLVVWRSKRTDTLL

Take `Cc1cnc(-c2c(CCC34CCC(CC3)OC4)nc3c(c2-c2ccc4c(c2)OC(C)(C)C(=O)N4Cc2ccc(F)cn2)c(=O)n2n3CCC2)o1` [Compound 159, 9-(4-[(5-fluoro-2-pyridyl)methyl]-2,2-dimethyl-3-oxo-2,4-dihydro-1,4-benzoxazin-7-yl}-10-(5-methyl-1,3-oxazol-2-yl)-11-(2-(2-oxabicyclo[2.2.2]oct-4-yl)ethyl}-2,6,12-triazatricyclo[6.4.0.0^2,6]dodeca-1(12),8,10-trien-7-one]: the EC50 (in general, the concentration giving half of the maximal effect) in test [1] is 70.2 nM; in test [2] it was 3.67 nM.

In the case of `Cc1cnc(-c2c(CCC3CCOCC3)nc3c(c2-c2ccc4c(c2)oc(=O)n4Cc2ccc(C#N)cn2)C(=O)N2CCC[C@@H]32)o1` [Compound 101], the EC50 in test [1] came to 38.1 nM; in test [2] it was 2.23 nM.

`Cc1nnc(-c2c(CCC3CCOCC3)nc3c(c2-c2cc4ccnc(N[C@@H]5CCc6ncccc65)c4s2)c(=O)n2n3CCC2)o1` [Compound 113, 9-{7-[(R)-4-aza-1-indanylamino]-1-thia-6-aza-2-indenyl}-10-(5-methyl-1,3,4-oxadiazol-2-yl)-11-[2-(tetrahydro-2H-pyran-4-yl)ethyl]-2,6,12-triazatricyclo[6.4.0.0^2,6]dodeca-1(12),8,10-trien-7-one]: the EC50 was 1080 nM in test [1] and 95.6 nM in test [2].

Take `CC(C)C1CS(=O)(=O)c2c1nc(CCC1CCOCC1)c(-c1nnc(N)o1)c2-c1cc2ccnc(N[C@@H]3CCc4ncccc43)c2s1` (stereo partly drawn) [Compound 120, 7-{7-[(R)-4-aza-1-indanylamino]-1-thia-6-aza-2-indenyl}-6-(5-amino-1,3,4-oxadiazol-2-yl)-3-isopropyl-5-[2-(tetrahydro-2H-pyran-4-yl)ethyl]-1λ^6-thia-4-aza-1,1-indandione]: the half-maximal effective concentration (EC50) was 55.3 nM in test [1] and 10.2 nM in test [2].

As for `Cc1nnc(-c2c(CCC3CCOCC3)nc3c(c2-c2cc4ccnc(NCc5ccc(C#N)nc5)c4s2)S(=O)(=O)CC3C(C)C)o1` (stereo not shown) [Compound 131, 5-[(2-(3-isopropyl-6-(5-methyl-1,3,4-oxadiazol-2-yl)-1,1-dioxo-5-[2-(tetrahydro-2H-pyran-4-yl)ethyl]-1λ^6-thia-4-aza-7-indanyl}-1-thia-6-aza-7-indenylamino)methyl]-2-pyridinecarbonitrile], the EC50 turned out to be 1490 nM in test [1] and 332 nM in test [2].

On to `Cc1nnc(-c2c(C(C)C)nc3c(c2-c2ccc4c(c2)OCC(=O)N4Cc2ccc(F)cn2)C(=O)N2CCC[C@@H]32)o1` [Compound 158, 7-((2S)-11-isopropyl-10-(5-methyl-1,3,4-oxadiazol-2-yl)-7-oxo-6,12-diazatricyclo[6.4.0.0^2,6]dodeca-1(12),8,10-trien-9-yl}-4-[(5-fluoro-2-pyridyl)methyl]-2,4-dihydro-1,4-benzoxazin-3-one], for which the values for the EC50 in test [1] and in test [2] were 5880 nM and 242 nM, respectively.

As to `Cc1nnc(-c2c(CCC3CCOCC3)nc3c(c2-c2cc4ccnc(N[C@@H]5CCc6ncccc65)c4s2)C(=O)N[C@H]3C(C)C)o1` [Compound 76], the EC50 in test [1] stood at 508 nM; in test [2] it was 71 nM.

On to `CC(C)c1nnc(-c2c(CCC34CCC(CC3)OC4)nc3c(c2-c2ccc4c(c2)oc(=O)n4Cc2ccc(C#N)c(F)c2)c(=O)n2n3CCC2)o1` [Compound 153, 2-fluoro-4-({6-[10-(5-isopropyl-1,3,4-oxadiazol-2-yl)-11-(2-(2-oxabicyclo[2.2.2]oct-4-yl)ethyl}-7-oxo-2,6,12-triazatricyclo[6.4.0.0^2,6]dodeca-1(12),8,10-trien-9-yl]-2-oxo-1,3-benzoxazol-3-yl}methyl)benzonitrile], for which the EC50 in test [1] is 12.2 nM; in test [2] it was 0.324 nM.

Consider `Cc1nnc(-c2c(CCC34CCC(CC3)OC4)nc3c(c2-c2cc4ccnc(N[C@@H]5CCc6ncccc65)c4s2)S(=O)(=O)CC3C(C)C)o1` (stereo partly drawn) [Compound 116, N—(R)-4-aza-1-indanyl(2-[3-isopropyl-6-(5-methyl-1,3,4-oxadiazol-2-yl)-5-(2-(2-oxabicyclo[2.2.2]oct-4-yl)ethyl}-1,1-dioxo-1λ^6-thia-4-aza-7-indanyl]-1-thia-6-aza-7-indenyl}amine], for which the figures for the EC50 in test [1] and in test [2] were 216 nM and 5.02 nM, respectively.

For the molecule `Cc1nnc(-c2c(CCC3CC(C)OC(C)C3)nc3c(c2-c2cc4ccnc(N[C@@H]5CCc6ncccc65)c4s2)S(=O)(=O)CC3C(C)C)o1` (stereo partly drawn) [Compound 136, N—(R)-4-aza-1-indanyl(2-(5-[2-(2,6-dimethyltetrahydro-2H-pyran-4-yl)ethyl]-3-isopropyl-6-(5-methyl-1,3,4-oxadiazol-2-yl)-1,1-dioxo-1λ^6-thia-4-aza-7-indanyl}-1-thia-6-aza-7-indenyl)amine], the EC50 in test [1] amounted to 309 nM; in test [2], 34.9 nM.

For the molecule `Cc1nnc(-c2c(CCC3CCOCC3)nc3c(c2-c2cnc4c(ccn4Cc4ccc(C#N)c(F)c4)c2)C(=O)N[C@H]3C(C)C)o1` [Compound 143, 4-[(5-{(S)-3-isopropyl-6-(5-methyl-1,3,4-oxadiazol-2-yl)-1-oxo-5-[2-(tetrahydro-2H-pyran-4-yl)ethyl]-2,4-diaza-7-indanyl}-1H-1,7-diazainden-1-yl)methyl]-2-fluorobenzonitrile], the EC50 was found to be 79.4 nM in test [1] and 6.35 nM in test [2].

As for `Cc1nnc(-c2c(CCC3CCOCC3)nc3c(c2-c2cc4ccnc(NCc5cnc(C#N)c(F)c5)c4s2)S(=O)(=O)CC3C(C)C)o1` (stereo not shown) [Compound 133, 3-fluoro-5-[(2-(3-isopropyl-6-(5-methyl-1,3,4-oxadiazol-2-yl)-1,1-dioxo-5-[2-(tetrahydro-2H-pyran-4-yl)ethyl]-1λ^6-thia-4-aza-7-indanyl}-1-thia-6-aza-7-indenylamino)methyl]-2-pyridinecarbonitrile], the EC50 in test [1] was 243 nM; in test [2] it was 42.2 nM.

Turning to `CC(C)C1CS(=O)(=O)c2c1nc(CCC1CCOCC1)c(-c1nnc[nH]1)c2-c1cc2ccnc(N[C@@H]3CCc4ncccc43)c2s1` (stereo partly drawn) [Compound 119, 7-(7-(((R)-6,7-dihydro-5H-cyclopenta[b]pyridin-5-yl)amino)thieno[2,3-c]pyridin-2-yl)-3-isopropyl-5-(2-(tetrahydro-2H-pyran-4-yl)ethyl)-6-(4H-1,2,4-triazol-3-yl)-2,3-dihydrothieno[3,2-b]pyridine 1,1-dioxide], the EC50 turned out to be 68.3 nM in test [1] and 11.6 nM in test [2].

Regarding `COc1nnc(-c2c(CCC3CCOCC3)nc3c(c2-c2cc4ccnc(N[C@@H]5CCc6ncccc65)c4s2)S(=O)(=O)CC3C(C)C)o1` (stereo partly drawn) [Compound 123, N—(R)-4-aza-1-indanyl(2-(3-isopropyl-6-(5-methoxy-1,3,4-oxadiazol-2-yl)-1,1-dioxo-5-[2-(tetrahydro-2H-pyran-4-yl)ethyl]-1λ^6-thia-4-aza-7-indanyl}-1-thia-6-aza-7-indenyl)amine], the EC50 came to 4380 nM in test [1] and 135 nM in test [2].
